One experiment relates to foxtail, giant. In words: Test A preemergence. It is filed as in vivo, Setaria faberii. As to conditions: Setaria faberi, pre-emergence, 240 h, 0 to 100 scale (0 no effect, 100 complete control), read-out: Plant response rating, Foxtail, Giant. A digest of the protocol: (§1)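 For preemergence, seeds were sown in a loam soil-sand blend and given a directed soil spray of test chemical in a non-phytotoxic solvent mixture with surfactant. For postemergence, plants in pots of the same blend were sprayed with the same formulation at the one- to two-leaf stage, 2 to 10 cm tall.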

The next experiment concerns barnyardgrass. Put plainly: Test A postemergence. It is filed as in vivo, Echinochloa crus-galli. The following applies: Echinochloa crus-galli, post-emergence, 240 h, 0 to 100 scale (0 no effect, 100 complete control), approx. 10 d, read-out: Plant response rating, Barnyardgrass. A digest of the protocol:
as §1

In another experiment the test system is pigweed. Put plainly: Test A postemergence. Type of experiment: in vivo, Amaranthus retroflexus. The following applies: Amaranthus retroflexus, post-emergence, 240 h, 0 to 100 scale (0 no effect, 100 complete control), approx. 10 d, read-out: Plant response rating, Pigweed. Summed up:
as §1

The next experiment has as its system corn. In words: Test A postemergence. It is filed as in vivo, Zea mays. As to conditions: Zea mays, post-emergence, 240 h, 0 to 100 scale (0 no effect, 100 complete control), approx. 10 d. Summed up:
as §1

As for `Cn1nc(-c2ccc(F)cc2)nc1Oc1cccc(C(F)(F)F)c1` [Compound 5, 3-(4-fluorophenyl)-1-methyl-5-[3-(trifluoromethyl)phenoxy]-1H-1,2,4-triazole], the pest or weed control at 125 g/ha with foxtail, giant (125 g ai/ha) was determined as 60%; in the experiment with barnyardgrass (125 g ai/ha), 10%; with pigweed (125 g ai/ha), 90%. Besides, the pest or weed control at 500 g/ha in the experiment with foxtail, giant (500 g ai/ha, approx. 10 d) was 90%; with barnyardgrass (500 g ai/ha), 30%; in the experiment on pigweed (500 g ai/ha), 100%. In the experiment on corn (125 g ai/ha), this compound registered a Corn plant response rating (crop injury, 0 = no effect, 100 = complete kill) at 125 g/ha of 10%. The same compound registered a Corn plant response rating (crop injury, 0 = no effect, 100 = complete kill) at 500 g/ha with corn (500 g ai/ha) of 20%.
